Structures are written as SMILES. Read-outs that look alike come from different tables or passages of the source.

The results in this text go back to US11773127B2, “Compounds and methods for treating bacterial infections” (Washington University, priority 2017, dated 2023).

In this test the target is T1, FmlHLD (Escherichia coli, UniProt P77588).
T1 construct: 6xHis (C); made in house; host or cells: E. coli C600, periplasm, pTRC99a
As to the kind of experiment: biochemical. In kind it is binding, E. coli. As to conditions: for inhibitory potency against FmlH, in words: ELISA-based competition assay; for PI100 (percent inhibition): galactoside at 100 μM, 100 µM. The method, boiled down:
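Sialidase-treated bovine submaxillary mucin (ds-BSM) coated wells, BSA-blocked, then biotinylated FmlH^LD (20 μg/mL) with or without compound for 1 h at room temperature. Bound lectin detected by streptavidin-HRP/TMB, A450.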
On the technique in general: An ELISA detects its analyte on a solid surface through an enzyme-linked reagent.

The mark [1] stands for this setting: IC50 (μM), Table 5, Gal and GalNAc inhibition of FmlH.
Where [2] appears, read: read-out: % Inhibition at [μM] [1], compound at 1 μM, inhibition of FmlHLD binding to ds-BSM.
Setting [3] is: read-out: PI(1) (average percent inhibition), compound at 1 μM, Table 4.
Setting [4] is: mean with standard error of the mean.
The mark [5] stands for this setting: read-out: PI10 (percent inhibition), galactoside at 10 μM, mean with standard error of the mean.
The mark [6] stands for this setting: read-out: PI100 (percent inhibition), galactoside at 100 μM, mean with standard error of the mean.
The mark [7] stands for this setting: IC50, inhibition of FmlHLD binding to ds-BSM.
The mark [8] stands for this setting: read-out: % Inhibition at [μM] [0.1], compound at 0.1 μM (100 nM), inhibition of FmlHLD binding to ds-BSM.
Where [9] appears, read: read-out: PI (0.1) (average percent inhibition), compound at 100 nM, Table 4.
Setting [10] is: read-out: % Inhibition at [μM] [100], compound at 100 μM, inhibition of FmlHLD binding to ds-BSM.
[11] abbreviates: read-out: PI1 (percent inhibition), galactoside at 1 μM, mean with standard error of the mean.
[12] abbreviates: read-out: % Inhibition at [μM] [10], compound at 10 μM, inhibition of FmlHLD binding to ds-BSM.

T1 sequence (P77588 25-182): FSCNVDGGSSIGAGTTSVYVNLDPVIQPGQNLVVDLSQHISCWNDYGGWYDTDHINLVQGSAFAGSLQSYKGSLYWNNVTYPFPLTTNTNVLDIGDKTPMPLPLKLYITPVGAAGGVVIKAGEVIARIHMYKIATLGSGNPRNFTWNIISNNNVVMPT

A word on the IC50: it is the point on the concentration scale where inhibition reaches its midpoint. In general, inhibition refers to the drop in the measured response relative to a control, in per cent. For `CNC(=O)c1cccc(-c2ccccc2O[C@@H]2O[C@H](CO)[C@H](O)[C@H](O)[C@H]2NC(C)=O)c1` [AM1189, 2′-(((2S,3R,4R,5R,6R)-3-acetamido-4,5-dihydroxy-6-(hydroxymethyl)tetrahydro-2H-pyran-2-yl)oxy)-N-methyl-[1,1′-biphenyl]-3-carboxamide], the “inhibitory potency against FmlH, in words” value (from here on “inhibitory potency”) is reported as “equal or slightly reduced potency”. This molecule also showed an IC50 under setting [1] of 3.36 µM. Moreover, the inhibition at 1 µM under setting [2] was determined as 12.3%. Under setting [3], the inhibition at 1 µM is 12.3%.

In the case of `COc1cc(OC)cc(O[C@@H]2O[C@H](CO)[C@H](O)[C@H](O)[C@H]2O)c1` [Compound 7β, 3,5-dimethoxyphenyl β-D-galactopyranoside], the “PI100 (percent inhibition)” value under setting [4] turned out to be 76.4 ± 2.4%. Besides, the inhibition at 10 µM under setting [5] turned out to be 11.7 ± 2.7%. Under setting [6], the inhibition at 100 µM was 76%.

As for `CC(=O)N[C@H]1[C@H](Oc2ccc3cccnc3c2)O[C@H](CO)[C@H](O)[C@@H]1O` [AM1180, N-((2S,3R,4R,5R,6R)-4,5-dihydroxy-6-(hydroxymethyl)-2-(quinolin-7-yloxy)tetrahydro-2H-pyran-3-yl)acetamide], the inhibition at 1 µM by setting is: under setting [2], 15.4%; under setting [3], 15.4%.

In the case of `COC(=O)Nc1cccc(-c2ccccc2O[C@@H]2O[C@H](CO)[C@H](O)[C@H](O)[C@H]2NC(C)=O)c1` [AM2065, methyl (2′-(((2S,3R,4R,5R,6R)-3-acetamido-4,5-dihydroxy-6-(hydroxymethyl)tetrahydro-2H-pyran-2-yl)oxy)-[1,1′-biphenyl]-3-yl)carbamate], the “inhibitory potency” value was “equal or slightly reduced potency”. The same molecule returned an IC50 under setting [1] of 0.63 µM. Moreover, under setting [7], the IC50 stood at 1.05 µM. Moreover, under setting [8], the inhibition at 0.1 µM worked out at 0%. In addition, the inhibition at 1 µM under setting [2] stood at 45.3%. Besides, the inhibition at 0.1 µM under setting [9] stood at 0%. Under setting [3], the inhibition at 1 µM is 45.3%.

In turn, `CC(=O)N[C@@H]1[C@H](Oc2ccccc2-c2cccc(NC(=O)C(F)(F)F)c2)OC(CO)[C@H](O)[C@@H]1O` (stereo partly drawn) [Compound 3044, N-(2′-(((2S,3S,4R,5R)-3-acetamido-4,5-dihydroxy-6-(hydroxymethyl)tetrahydro-2H-pyran-2-yl)oxy)-[1,1′-biphenyl]-3-yl)-2,2,2-trifluoroacetamide] gave an IC50 under setting [1] of 0.37 µM.

Turning to `OC[C@H]1O[C@@H](Oc2ccc3ccccc3c2)[C@H](O)[C@@H](O)[C@H]1O` [Compound 19β], under setting [4], the “PI100 (percent inhibition)” value is listed as 78.8 ± 2.1%. For the same molecule, the inhibition at 10 µM under setting [5] was 14.6 ± 3.1%. Also, the inhibition at 100 µM under setting [6] was 79%.

For `OC[C@H]1O[C@H](Oc2cccc(-c3ccccc3)c2)[C@H](O)[C@@H](O)[C@H]1O` [Compound 114af1], the inhibition at 100 µM under setting [10] was determined as 45.6%.

For the molecule `Cc1ccccc1O[C@@H]1O[C@H](CO)[C@H](O)[C@H](O)[C@H]1O` [Compound 2β, 2-Methylphenyl α/β-D-Galactopyranoside], under setting [4], the “PI100 (percent inhibition)” value came to 87.3 ± 3.7%. For the same molecule, under setting [11], the inhibition at 1 µM came out at 1.8 ± 5.7%. Under setting [5], the inhibition at 10 µM turned out to be 28.2 ± 1.8%. For the same molecule, under setting [6], the inhibition at 100 µM was 87%.

On to `Cc1ccccc1O[C@H]1O[C@H](CO)[C@H](O)[C@H](O)[C@H]1O` [Compound 2α, 2-Methylphenyl α/β-D-Galactopyranoside], for which the inhibition at 100 µM under setting [6] stood at 30 ± 5.4%.

With `N#Cc1ccccc1O[C@@H]1O[C@H](CO)[C@H](O)[C@H](O)[C@H]1O` [Compound 137b], the inhibition at 1 µM under setting [2] is 12.1%. The inhibition at 10 µM under setting [12] was determined as 30.4%. The inhibition at 100 µM under setting [10] was found to be 94.5%.

With `CC(=O)N[C@H]1[C@H](Oc2cccc3ccncc23)O[C@H](CO)[C@H](O)[C@@H]1O` (stereo in doubt) [AM1186], the inhibition at 1 µM runs as follows: under setting [2], 23.5%; under setting [3], 23.5%.

Take `CC(=O)N[C@H]1[C@H](Oc2ccccc2-c2cccc(CO)c2)O[C@H](CO)[C@H](O)[C@@H]1O` [AM2064, N-((2S,3R,4R,5R,6R)-4,5-dihydroxy-6-(hydroxymethyl)-2-((3′-(hydroxymethyl)-[1,1′-biphenyl]-2-yl)oxy)tetrahydro-2H-pyran-3-yl)acetamide]: the “inhibitory potency” value is given as “equal or slightly reduced potency”. The molecule further came in with an IC50 under setting [1] of 0.63 µM. The inhibition at 0.1 µM under setting [8] was 2%. Moreover, the inhibition at 1 µM under setting [2] came to 38.9%. The inhibition at 0.1 µM under setting [9] came to 2%. Moreover, under setting [3], the inhibition at 1 µM worked out at 38.9%.

Consider `Cc1cc(=O)oc2cc(O[C@@H]3O[C@H](CO)[C@H](O)[C@H](O)[C@H]3O)ccc12` [MUG, reference compound], for which, under setting [2], the inhibition at 1 µM was determined as 8.73%. Under setting [12], the inhibition at 10 µM stood at 19.7%. Further, the inhibition at 100 µM under setting [10] was 85.2%.

Consider `CC(=O)N[C@H]1[C@H](Oc2ccccc2-c2cccc(OS(C)(=O)=O)c2)O[C@H](CO)[C@H](O)[C@@H]1O` [AM2078, 2′-(((2S,3R,4R,5R,6R)-3-acetamido-4,5-dihydroxy-6-(hydroxymethyl)tetrahydro-2H-pyran-2-yl)oxy)-[1,1′-biphenyl]-3-yl methanesulfonate], for which the “inhibitory potency” value is “equal or slightly reduced potency”. Also, the IC50 under setting [1] stood at 0.89 µM. Besides, under setting [8], the inhibition at 0.1 µM was determined as 2%. Moreover, the inhibition at 1 µM under setting [2] was found to be 32.5%. Further, the inhibition at 0.1 µM under setting [9] was 2%. Further, the inhibition at 1 µM under setting [3] is 32.5%.

`Cc1ccc(O[C@@H]2O[C@H](CO)[C@H](O)[C@H](O)[C@H]2O)cc1` [Compound 153a]: the inhibition at 1 µM under setting [2] amounted to 4.59%. In addition, under setting [12], the inhibition at 10 µM worked out at 16.5%. Besides, the inhibition at 100 µM under setting [10] came to 85.8%.

The molecule `CC(=O)N[C@H]1[C@H](Oc2ccc3ccccc3c2-c2cccc(NS(C)(=O)=O)c2)O[C@H](CO)[C@H](O)[C@@H]1O` [AM2144] registered an IC50 under setting [7] of 0.18 µM.

As for `N#Cc1ccccc1O[C@@H]1O[C@H](CO)[C@H](O)[C@H](O)[C@H]1O` [Compound 3β, 2-cyanophenyl α/β-D-galactopyranoside], the “PI100 (percent inhibition)” value under setting [4] is 94.5 ± 0.3%. Further, the inhibition at 1 µM under setting [11] is 12.1 ± 6.3%. Moreover, under setting [5], the inhibition at 10 µM was determined as 30.4 ± 1.8%. For the same molecule, the inhibition at 100 µM under setting [6] was 95%.

As for `COc1ccc(C(=O)O)cc1-c1ccccc1O[C@@H]1O[C@H](CO)[C@H](O)[C@H](O)[C@H]1NC(C)=O` [AM2051], the inhibition at 0.1 µM under setting [8] was 0%. Moreover, the inhibition at 1 µM under setting [2] was determined as 15.9%.

Under setting [7], `CC(=O)N[C@H]1[C@H](Oc2cccc(C(F)(F)F)c2-c2cccc(NS(C)(=O)=O)c2)O[C@H](CO)[C@H](O)[C@@H]1O` [AM2134] came in with an IC50 of 0.085 µM.

As to `OC[C@H]1O[C@H](Oc2cccc(-c3ccccc3)c2)[C@H](O)[C@@H](O)[C@H]1O` [Compound 31α, [1,1′-biphenyl]-3-yl α/β-D-galactopyranoside], the inhibition at 100 µM under setting [6] came out at 45.6 ± 2.5%.

In the case of `COc1cccc(-c2ccccc2O[C@@H]2O[C@H](CO)[C@H](O)[C@H](O)[C@H]2NC(C)=O)c1` [AM2029, N-((2S,3R,4R,5R,6R)-4,5-dihydroxy-6-(hydroxymethyl)-2-((3′-methoxy-[1,1′-biphenyl]-2-yl)oxy)tetrahydro-2H-pyran-3-yl)acetamide], the “inhibitory potency” value is “equal or slightly reduced potency”. For the same molecule, under setting [1], the 50% inhibitory concentration (IC50) is 2 µM. Under setting [2], the inhibition at 1 µM came to 15.5%. Further, the inhibition at 1 µM under setting [3] is 15.5%.

As to `OC[C@H]1O[C@@H](Oc2cccc3ccncc23)[C@H](O)[C@@H](O)[C@H]1O` [Compound 21β, 8-isoquinolinyl β-D-galactopyranoside], the “PI100 (percent inhibition)” value under setting [4] is listed as 15.2 ± 7.1%. For the same molecule, the inhibition at 100 µM under setting [6] was 15%.

`CC(=O)N[C@H]1[C@H](Oc2cccc(C)c2-c2cccc(NS(=O)(=O)C3CC3)c2)O[C@H](CO)[C@H](O)[C@@H]1O` [AM2151]: under setting [7], the IC50 was 0.12 µM.

Regarding `OC[C@H]1O[C@H](Oc2cccc3ccccc23)[C@H](O)[C@@H](O)[C@H]1O` [Compound 115af1], the inhibition at 100 µM under setting [10] was 28.1%.

For `CC(=O)N[C@H]1[C@H](Oc2cccc3cc4ccccc4nc23)O[C@H](CO)[C@H](O)[C@@H]1O` [AM2003, N-((2S,3R,4R,5R,6R)-2-(acridin-4-yloxy)-4,5-dihydroxy-6-(hydroxymethyl)tetrahydro-2H-pyran-3-yl)acetamide], the inhibition at 1 µM by setting is: under setting [2], 15.4%; under setting [3], 15.4%.

`OC[C@H]1O[C@@H](Oc2c[nH]c3cc(Cl)ccc23)[C@H](O)[C@@H](O)[C@H]1O` [Salmon Gal, reference compound]: under setting [10], the inhibition at 100 µM came out at 41.2%.

For the molecule `CC(=O)N[C@H]1[C@H](Oc2ccc3ccccc3c2-c2cccc(NS(C)(=O)=O)c2)O[C@H](CO)[C@H](O)[C@@H]1O` [Compound 3085, N-((2S,3R,4R,5R,6R)-4,5-dihydroxy-6-(hydroxymethyl)-2-((1-(3-(methylsulfonamido)phenyl)naphthalen-2-yl)oxy)tetrahydro-2H-pyran-3-yl)acetamide], where the note is “IC50 (μM), Table 6, sulfonamides 3078-3090”, the IC50 worked out at 0.18 µM. In other words, the sub-micromolar range.

In turn, `CC(=O)N[C@H]1[C@H](Oc2cccc(C(=O)OCc3ccccc3)c2-c2cccc(NS(C)(=O)=O)c2)O[C@H](CO)[C@H](O)[C@@H]1O` [AM2141] had an IC50 under setting [7] of 0.18 µM.
